The text below walks through data of US5869477A, “β-methylcarbapenem derivatives, process for the preparation thereof and pharmaceutical composition comprising same” (priority 1995, dated 1999).

In one data set the test system is S. aureus 503. Nature of the data set: agar plate dilution method, MIC. It is filed as cell-based. The conditions noted are these: about 10^7 CFU/ml, 37° C., 18 hours. On the procedure:
(§1) The antibacterial activities of the β-methylcarbapenem compounds of the present invention prepared in the above Examples were determined in accordance with the agar plate dilution method(Hoechst 345). Specifically,about 10^7 CFU/ml of test bacteria(Hoechst standard strains) was inoculated to a Muller-Hinton agar medium containing serial double dilutions of the test compounds, i.e., compounds prepared in Examples 1 to 3, and incubated at 37° C. for 18 hours. Tribactam(EP 416953) and SUN-5555(Santory Co., Japan) were employed as control materials for carbapenem and penem, respectively. When the incubation was completed, the minimum inhibitory concentration of each test compounds was determined.

In a further data set the test system is S. aureus 285. In words: agar plate dilution method, MIC. Type of data set: cell-based. The conditions noted are these: about 10^7 CFU/ml, 37° C., 18 hours. On the procedure:
as §1

The subject of another data set is S. aureus SG 511. In words: agar plate dilution method, MIC. It is filed as cell-based. The conditions noted are these: about 10^7 CFU/ml, 37° C., 18 hours. On the procedure: as §1
Another data set deals with S. typhimurium. Nature of the data set: agar plate dilution method, MIC. The conditions noted are these: about 10^7 CFU/ml, 37° C., 18 hours. It is filed as cell-based. On the procedure:
as §1

The test system of the next data set is E. coli 078. In words: agar plate dilution method, MIC. Type of data set: cell-based. The settings on record: about 10^7 CFU/ml, 37° C., 18 hours. On the procedure:
as §1

The next data set concerns E. coli 1507 E. Nature of the data set: agar plate dilution method, MIC. Type of data set: cell-based. The settings on record: about 10^7 CFU/ml, 37° C., 18 hours. On the procedure:
as §1

The next data set relates to E. coli DC 0. In words: agar plate dilution method, MIC. The conditions noted are these: about 10^7 CFU/ml, 37° C., 18 hours. Type of data set: cell-based. Here is the method: as §1
Another data set concerns E. coli TEM. Nature of the data set: agar plate dilution method, MIC. Type of data set: cell-based. The settings on record: about 10^7 CFU/ml, 37° C., 18 hours. Here is the method: as §1
Another data set relates to K. oxytoca 1082 E. Nature of the data set: agar plate dilution method, MIC. It is filed as cell-based. The conditions noted are these: about 10^7 CFU/ml, 37° C., 18 hours. On the procedure: as §1
The test system of the next data set is P. aeruginosa 1771 M. In words: agar plate dilution method, MIC. Type of data set: cell-based, Pseudomonas aeruginosa. The conditions noted are these: about 10^7 CFU/ml, 37° C., 18 hours. On the procedure: as §1
A further data set has as its system P. aeruginosa 1592 E. In words: agar plate dilution method, MIC. The conditions noted are these: about 10^7 CFU/ml, 37° C., 18 hours. It is filed as cell-based, Pseudomonas aeruginosa. Here is the method: as §1
In another data set the test system is P. aeruginosa 1771. In words: agar plate dilution method, MIC. The conditions noted are these: about 10^7 CFU/ml, 37° C., 18 hours. It is filed as cell-based, Pseudomonas aeruginosa. On the procedure: as §1
For the next data set, the system named is P. aeruginosa 9027. In words: agar plate dilution method, MIC. Type of data set: cell-based, Pseudomonas aeruginosa. The conditions noted are these: about 10^7 CFU/ml, 37° C., 18 hours. On the procedure: as §1
The next data set has as its system E. cloacae 1321 E. In words: agar plate dilution method, MIC. Type of data set: cell-based, Enterobacter cloacae. The settings on record: about 10^7 CFU/ml, 37° C., 18 hours. On the procedure:
as §1

Another data set relates to S. faecium MD 8b. Nature of the data set: agar plate dilution method, MIC. The conditions noted are these: about 10^7 CFU/ml, 37° C., 18 hours. Type of data set: cell-based, Streptococcus faecium. On the procedure:
as §1

A further data set has as its system K. aerogenes 1522 E. Nature of the data set: agar plate dilution method, MIC. Type of data set: cell-based, Klebsiella aerogenes. The settings on record: about 10^7 CFU/ml, 37° C., 18 hours. Here is the method:
as §1

For a further data set, the system named is S. pyogenes 308A. Nature of the data set: agar plate dilution method, MIC. Type of data set: cell-based, Streptococcus pyogenes. The conditions noted are these: about 10^7 CFU/ml, 37° C., 18 hours. On the procedure: as §1
Another data set relates to S. pyogenes 77A. In words: agar plate dilution method, MIC. Type of data set: cell-based, Streptococcus pyogenes. The conditions noted are these: about 10^7 CFU/ml, 37° C., 18 hours. Here is the method:
as §1

Another data set deals with E. cloacae P 99. Nature of the data set: agar plate dilution method, MIC. It is filed as cell-based, Enterobacter cloacae. The conditions noted are these: about 10^7 CFU/ml, 37° C., 18 hours. On the procedure: as §1
Data set [1] in a line: bioavailability indices in infected mice, one-compartment oral model. On the set-up: species or system I.C.R. mouse. The settings on record: in vivo; for AUC / p.o./s.c. / Cmax / Tmax / half-life: 40 mg/kg; for pharmacokinetics values and p.o. absorption versus controls (in words) / Cmax / Tmax / half-life: po. Here is the method:
The in vivo antibacterial activities and pharmacological activities of the β-methylcarbapenem compounds of the present invention were tested as follows. Specifically, 4 to 5 week-old I.C.R. mouse, each weighing 22 to 25 g and infected with Streptococcus pyogenes 77A, were administered per os with the solutions of the compounds of Examples 5 and 9 dissolved in 10% DMSO, at a dosage of 40 mg/kg body weight. The bioavailability indices, e.g., Cmax, Tmax, t1/2, AUC and p.o./s.c. were determined in accordance with one-compartment oral model method(Drug Metabolism Reviews, 17, 331-348(1986)). The one-compartment oral model was prepared by curve fitting using Gauss-Newto method and calculation using PKCALC computer program.

Structures are written as SMILES. Read-outs that look alike come from different tables or passages of the source. Some results are limits rather than exact numbers.

Consider `CC(C)[C@@H](O)C1=C(C(=O)O)N2C(=O)[C@H]([C@@H](C)O)[C@H]2[C@H]1C` [Example 1, potassium (1S, 5R, 6S)-2-[(1R)-1-hydroxy-2-methylpropyl]-6-[(1R)-1-hydroxyethyl]-1-methyl-2-carbapenem-3-carboxylate], for which the minimum inhibitory concentration in the data set on S. aureus 503 was 0.098; in the data set with S. aureus 285 it was 0.098; in the data set with S. aureus SG 511, 0.098; in the data set with S. typhimurium, 0.098; in the data set with E. coli 078, 0.049; in the data set with E. coli 1507 E, 0.049. The minimum inhibitory concentration in the data set on E. coli DC 0 is listed as 0.195; in the data set on E. coli TEM it was 0.195; in the data set on K. oxytoca 1082 E, 1.563; in the data set with P. aeruginosa 1771 M, 0.781; in the data set with P. aeruginosa 1592 E, over 100; with P. aeruginosa 1771, 100. In addition, the minimum inhibitory concentration is reported as over 100 in the data set with P. aeruginosa 9027; 0.098 in the data set on E. cloacae 1321 E; 3.125 with S. faecium MD 8b; 0.391 with K. aerogenes 1522 E; 0.013 with S. pyogenes 308A; 0.013 with S. pyogenes 77A.

Regarding `C[C@@H](O)[C@H]1C(=O)N2C(C(=O)O)=C([C@H](O)C3CC3)[C@H](C)[C@H]12` [Example 2, potassium (1S, 5R, 6S)-2-[(R)-(cyclopropyl) hydroxymethyl]-6-[(1R)-1-hydroxyethyl]-1-methyl-2-carbapenem-3-carboxylate], the minimum inhibitory concentration in the data set on S. aureus 503 worked out at 0.049; with S. aureus 285 it was 0.049; with S. aureus SG 511 it was 0.049; with S. typhimurium, 0.098; with E. coli 078 it was 0.098; in the data set with E. coli 1507 E it was 0.049. The minimum inhibitory concentration with E. coli DC 0 is 0.098; in the data set on E. coli TEM, 0.098; in the data set with K. oxytoca 1082 E, 0.781; in the data set on P. aeruginosa 1771 M, 1.563; with P. aeruginosa 1592 E, 100.0; in the data set with P. aeruginosa 1771, 100.0. Also, the minimum inhibitory concentration in the data set on P. aeruginosa 9027 stood at 100.0; with E. cloacae 1321 E it was 0.098; with S. faecium MD 8b, 0.781; with K. aerogenes 1522 E, 0.195; with S. pyogenes 308A, 0.007; in the data set on S. pyogenes 77A, 0.007.

Consider `C[C@@H](O)[C@H]1C(=O)N2C(C(=O)O)=C([C@H](O)C3CCCC3)[C@H](C)[C@H]12` [Example 3, potassium (1S, 5R, 6S)-2-[(R)-(cyclopentyl)hydroxymethyl]-6-[(1R)-1-hydroxyethyl]-1-methyl-2-carbapenem-3-carboxylate], for which the minimum inhibitory concentration was 0.098 in the data set with S. aureus 503; 0.098 in the data set on S. aureus 285; 0.098 in the data set with S. aureus SG 511; 0.098 in the data set on S. typhimurium; 0.195 with E. coli 078; 0.098 in the data set with E. coli 1507 E. For the same molecule, the minimum inhibitory concentration is reported as 0.391 with E. coli TEM; 1.563 in the data set with K. oxytoca 1082 E; 1.563 with P. aeruginosa 1771 M; over 100.0 with P. aeruginosa 1592 E; over 100.0 with P. aeruginosa 1771; over 100.0 with P. aeruginosa 9027. The minimum inhibitory concentration is reported as 0.391 in the data set on E. cloacae 1321 E; 6.250 with E. cloacae P 99; 0.781 with S. faecium MD 8b; 0.781 in the data set with K. aerogenes 1522 E; 0.004 in the data set with S. pyogenes 308A; 0.007 in the data set on S. pyogenes 77A.

Consider `Cc1oc(=O)oc1COC(=O)C1=C([C@H](O)C(C)C)[C@H](C)[C@@H]2[C@@H]([C@@H](C)O)C(=O)N12` [Example 5, (5-methyl-2-oxo-1,3-dioxolen-4-yl)methyl (1S, 5R, 6S)-2-[(1R)-1-hydroxy-2-methylpropyl]-6-[(1R)-1-hydroxyethyl]-1-methyl-2-carbapenem-3-carboxylate], for which, in data set [1] (mouse), the AUC came out at 3.80; the p.o./s.c. was 32.50%; the “pharmacokinetics values and p.o. absorption versus controls (in words)” value was “superior pharmacokinetics values and p.o. absorption over the controls”; the Cmax (commonly the highest concentration seen after dosing) came to 8770 ng/mL. Besides, in data set [1] (mouse), the Tmax (as a rule, the time at which the peak concentration occurs) came out at 10.2 min and the half-life – broadly, the time in which the quantity being followed falls by half – was 16.2 min.

Turning to `CC(C)OC(=O)OC(C)OC(=O)C1=C([C@H](O)C(C)C)[C@H](C)[C@@H]2[C@@H]([C@@H](C)O)C(=O)N12` (stereo partly drawn) [Example 9, isopropyloxycarbonyloxy-1-ethyl (1S, 5R, 6S)-2-[(1R)-1-hydroxy-2-methylpropyl]-6-[(1R)-1-hydroxyethyl]-1-methyl-2-carbapenem-3-carboxylate], in [1] (mouse), the AUC came to 6.78; the p.o./s.c. came out at 32.42%; the “pharmacokinetics values and p.o. absorption versus controls (in words)” value was “superior pharmacokinetics values and p.o. absorption over the controls”; the concentration peaked (Cmax) at 10400 ng/mL. In data set [1] (mouse), the Tmax was found to be 19.8 min and the half-life is 19.8 min.

As to `C[C@@H](O)[C@H]1C(=O)N2C(C(=O)O)=C([C@H]3CCCO3)S[C@H]12` [SUN-5555, reference compound], the minimum inhibitory concentration in the data set with S. aureus 503 is given as 0.098; in the data set with S. aureus 285, 0.098; in the data set on S. aureus SG 511 it was 0.098; in the data set with S. typhimurium it was 0.195; with E. coli 078 it was 0.195; with E. coli 1507 E, 0.195. For the same molecule, the minimum inhibitory concentration in the data set with E. coli DC 0 is recorded as 0.781; in the data set with E. coli TEM, 0.391; in the data set with K. oxytoca 1082 E, 0.391; with P. aeruginosa 1771 M, 3.125; in the data set on P. aeruginosa 1592 E it was over 100.0; with P. aeruginosa 1771 it was over 100.0. The minimum inhibitory concentration is recorded as over 100.0 in the data set on P. aeruginosa 9027; 0.391 in the data set on E. cloacae 1321 E; 1.563 in the data set with E. cloacae P 99; 6.250 with S. faecium MD 8b; 0.391 with K. aerogenes 1522 E; 0.013 with S. pyogenes 308A. Further, the minimum inhibitory concentration in the data set with S. pyogenes 77A is reported as 0.007. Besides, the Cmax in data set [1] (I.C.R. mouse infected with S. pyogenes 77A, per os, 10% DMSO, read-out: Cmax) came out at 2640 ng/mL. Further, the Tmax in [1] (I.C.R. mouse infected with S. pyogenes 77A, per os, 10% DMSO, read-out: Tmax) amounted to 25.2 min. The p.o./s.c. in data set [1] (mouse) is recorded as 22.71%. The molecule further had a half-life in data set [1] (mouse) of 22.8 min.
